Reference: US20120010135A1, “SPIRO DERIVATIVES FOR THE MODULATION OF STEAROYL-COA DESATURASE” (XENON PHARMACEUTICALS INC., priority 2009, published 2012)
Counter-ions that a name gives are not always drawn.

Assays:
[1] = target: T1, stearoyl-CoA desaturase (SCD1) (Mus musculus, UniProt P13516); assay: SCD microsomal assay using mouse liver microsomes (release of 3H2O from [9,10-3H]stearoyl-CoA); format: biochemical; conditions: 15 min incubation, 25° C.
T1 construct: Male ICR outbread mice, on a high-carbohydrate, low fat diet; from tissue; host or cells: liver microsomes of male ICR mice on a high-carbohydrate, low fat diet
T1 sequence (P13516 1-355): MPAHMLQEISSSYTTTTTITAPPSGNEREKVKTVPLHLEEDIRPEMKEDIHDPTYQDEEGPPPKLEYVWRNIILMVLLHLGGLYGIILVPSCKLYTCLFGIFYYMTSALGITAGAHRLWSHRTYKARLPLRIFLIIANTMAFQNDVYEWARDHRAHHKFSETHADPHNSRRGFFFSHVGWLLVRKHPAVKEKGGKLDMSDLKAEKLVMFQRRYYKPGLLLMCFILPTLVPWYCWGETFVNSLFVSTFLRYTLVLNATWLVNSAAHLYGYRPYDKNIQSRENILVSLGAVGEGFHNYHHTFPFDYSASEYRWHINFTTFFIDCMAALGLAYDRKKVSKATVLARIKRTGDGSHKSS
Text: The identification of compounds of the invention as SCD inhibitors was readily accomplished using the SCD enzyme and microsomal assay procedure described in Shanklin J. and Summerville C., Proc. Natl. Acad. Sci. USA (1991), Vol. 88, pp. 2510-2514.
Measuring Stearoyl-CoA Desaturase Inhibition Activity of a Test Compound Using Mouse Liver Microsomes
The identification of compounds of the invention as SCD inhibitors was readily accomplished using the SCD microsomal assay procedure described in Shanklin J. and Summerville C., Proc. Natl. Acad. Sci. USA (1991), Vol. 88, pp. 2510-2514.
Male ICR outbread mice, on a high-carbohydrate, low fat diet, under light halothane (15% in mineral oil) anesthesia are sacrificed by exsanguination during periods of high enzyme activity. Livers are immediately rinsed with cold 0.9% NaCl solution, weighed and minced with scissors. All procedures are performed at 4′C unless specified otherwise. Livers are homogenized in a solution (1/3 w/v) containing 025 M sucrose, 62 mM potassium phosphate buffer (pH 7.0), 0.15 M KCL 15 mM N-acetyleysteine, 5 mM MgCl2, and 0.1 mM EDTA using 4 strokes of a Potter-Elvehjem tissue homogenizer. The homogenate is centrifuged at 10,400×g for 20 min to eliminate mitochondria and cellular debris. The supernatant is filtered through a 3-layer cheesecloth and centrifuged at 105,000×g for 60 min. The microsomal pellet is gently resuspended in the same homogenization solution with a small glass/teflon homogenizer and stored at −70° C. The absence of mitochondrial contamination is enzymatically assessed. The protein concentration is measured using bovine serum albumin as the standard.
Desaturase activity is measured as the release of ^3H2O from [9,10-^3H]stearoyl-CoA. Reactions per assay point conditions are as follows: 2 μL 1.5 mM stearoyl-CoA, 0.25 μL 1 mCi/mL ^3H-stearoyl CoA, 10 μL 20 mM NADH, 36.75 μL 0.1 M PK buffer (K2HPO4/NaH2PO4, pH 7.2). The test compound or control solution is added in a 1 μL volume. Reactions are started by adding 50 μL of microsomes (1.25 mg/mL). The plates are mixed and after 15 min incubation on a heating block (25° C.), the reactions are stopped by the addition of 10 μL 60% PCA. An aliquot of 100 μL is then transferred to a fitter plate pretreated with charcoal and the plate centrifuged at 4000 rpm for 1 minute. The flow through containing the ^3H2O released by the SCD1 desaturation reaction is added to scintillation fluid and the radioactivity measured in a Packard TopCount. The data is analysed to identify the IC50 for test compounds and reference compounds.
The activity was defined in terms of % SCD enzyme activity remaining at the desired concentration of the test compound or as the IC50 concentration. The IC50 (affinity) of the example compounds toward the stearoyl-CoA desaturase is comprised between around […] and 0.0001 μM or between around […] 0.0001 μM or between around 1 μM and 0.0001 μM.

Row | SMILES | IC50 [1] | melting point
1 | Cc1nc(NC(=O)N2CCC3(CCc4ccc(F)cc4O3)CC2)sc1C(=O)NCc1ccccn1 [Example 4, 7-fluoro-N-(4-methyl-5-(pyridin-2-ylmethylcarbamoyl)thiazol-2-yl)spiro[chroman-2,4′-piperidine]-1′-carboxamide] | 0.048 µM | 165 to 167 °C
2 | CNC(=O)c1ccnc(NC(=O)N2CCC3(CC2)CC(=O)c2ccc(F)cc2O3)c1 [Example 1, 7-fluoro-N-(4-(methylcarbamoyl)pyridin-2-yl)-4-oxospiro[chroman-2,4′-piperidine]-1′-carboxamide hydrochloride] | 0.524 µM | 
3 | CNC(=O)c1ccnc(NC(=O)N2CCC3(CCc4cccc(Cl)c4O3)CC2)c1 [Example 1.2, 8-chloro-N-(4-(methylcarbamoyl)pyridin-2-yl)spiro[chroman-2,4′-piperidine]-1′-carboxamide hydrochloride] | 0.003 µM | 
4 | CNC(=O)c1cncc(NC(=O)N2CCC3(CCc4ccc(F)cc4O3)CC2)c1 [Example 1.6, 7-fluoro-N-(5-(methylcarbamoyl)pyridin-3-yl)spiro[chroman-2,4′-piperidine]-1′-carboxamide] |  | 231 to 233 °C
5 | CNC(=O)c1ccnc(NC(=O)N2CCC3(CC2)CC(=O)c2cccc(Cl)c2O3)c1.Cl [Example 1.3, 8-chloro-N-(4-(methylcarbamoyl)pyridin-2-yl)-4-oxospiro[chroman-2,4′-piperidine]-1′-carboxamide hydrochloride] | 0.056 µM | 215 °C (dec.)
6 | CNC(=O)c1ccnc(NC(=O)N2CCC3(CC2)Cc2ccccc2C3)c1 [Example 1.7, N-(4-(methylcarbamoyl)pyridin-2-yl)-1,3-dihydrospiro[indene-2,4′-piperidine]-1′-carboxamide] |  | 229 to 231 °C
7 | CNC(=O)c1ccnc(NC(=O)N2CCC3(CCc4cc(F)ccc4O3)CC2)c1 [Example 1.4, 6-fluoro-N-(4-(methylcarbamoyl)pyridin-2-yl)spiro[chroman-2,4′-piperidine]-1′-carboxamide] |  | 175 to 176 °C
8 | NC(=O)c1ccnc(NC(=O)N2CCC3(CCc4cc(F)ccc4O3)CC2)c1 [Example 3, N-(4-carbamoylpyridin-2-yl)-6-fluorospiro[chroman-2,4′-piperidine]-1′-carboxamide] |  | 265 to 267 °C
9 | CNC(=O)c1cccc(NC(=O)N2CCC3(CCc4ccc(F)cc4O3)CC2)n1 [Example 1.5, 7-fluoro-N-(6-(methylcarbamoyl)pyridin-2-yl)spiro[chroman-2,4′-piperidine]-it-carboxamide] |  | 126 to 128 °C
10 | Cn1cc(CNC(=O)c2ccnc(NC(=O)N3CCC4(CCc5cc(F)ccc5O4)CC3)c2)cn1 [Example 2.1, 6-fluoro-N-(4-{[(1-methyl-1H-pyrazol-4-yl)methyl]carbamoyl}pyridin-2-yl)-3,4-dihydro-1′H-spiro[chromene-2,4′-piperidine]-1′-carboxamide hydrochloride] | 0.04 µM | 
11 | CNC(=O)c1ccnc(NC(=O)N2CCC3(CCc4ccc(F)cc4O3)CC2)c1 [Example 1.1, 7-fluoro-N-(4-(methylcarbamoyl)pyridin-2-yl)spiro[chroman-2,4′-piperidine]-1′-carboxamide] | 0.017 µM | 177 to 179 °C
